Data from patent publication US20120095325A1, “TREATMENT OF BRAIN DISEASES VIA ULTRASOUND/MAGNETIC TARGETING DELIVERY AND TRACING OF THERAPEUTIC AGENTS” (Chang Gung Medical Foundation, Linkou Branch, priority 2010, published 2012).
Values after ≈ are worked out from the molar mass of the structure shown.

Experiments:
[1] = cited from earlier work
[2] = tested on: breast carcinoma; conditions: cited from earlier work
[3] = in vivo; conditions: Sprague-Dawley, rat
Experimental: All animal experiments were approved by the Institutional Animal Care and Use Committee of Chang Gung University and adhered to their experimental animal care guidelines. […] Brain tumors were induced in another 14 rats by injection of cultured C6 tumor cells. Briefly, C6 tumor cells (10^6 cells/plate) were injected into the brains using a microdialysis pump system (CMA Microdialysis). Animals underwent FUS treatment on Day 10 after tumor implantation to determine if the method could open an area of the BBB sufficiently large to cover the area of the induced tumors.
Before the FUS treatment, the rats were anesthetized by i.p. injection of chlorohydrate (30 mg/kg). The top of the cranium of each rat was shaved with clippers, and a PE-50 catheter was inserted into the jugular vein. The animal's head was attached tightly to a 4-cm^2 thin-film window directly under an acrylic water tank. The animal's cranial opening was filled with degassed water to serve as an acoustic coupling device. SonoVue® SF6-coated US microbubbles (mean diameter 2-5 μm, 2.5 μg/kg; Bracco) were administered i.v. before sonication (with a time lapse<10 s). Each bolus injection contained 0.1 mL of microbubble/kg of body weight mixed with 0.2 mL of saline solution. A heparin flush (0.2 mL) was subsequently performed.
Animal experiments were monitored using the 3-T magnetic resonance imager to localize the geometric center of the FUS and the energy exposure site. US was delivered to the brain transcranially using a MR-compatible spherical transducer (diameter, 60 mm; radius of curvature, 80 mm; frequency, 400 kHz, electric-to-acoustic efficiency, 70%; Imasonics) with the center of the focal zone positioned at a penetration depth of 2 to 3 mm in each hemisphere. Single burst-mode US was delivered, with a burst length of 10 ms, a pulse-repetition frequency of 1 Hz, and total sonication duration of 120 s. For optimization studies, the input electric power used was 2 W, corresponding to an acoustic negative peak (i/e., spatial-peak, temporal-peak) pressure amplitude measured through the animal cranium equal to 0.62 MPa.
In the MT treatment, a permanent magnet having a peak magnetic flux density of 0.18 T, 0.4 T or 0.55 T was used to produce an inhomogeneous magnetic field. To concentrate the magnetic flux density onto the disrupted region of the BBB, the magnet was tilted at an angle relative to the animal's brain, attached to the animal's scalp, and supported and tightened using a custom-made plastic belt for the desired duration (3-24 hrs). MRI images were acquired immediately after removal of the magnet.
Animals' brains were monitored by MRI after the FUS treatment and/or the MT treatment. All MRI images were acquired on a 3-T scanner using the standard wrist coil with an inner diameter of 13 cm. The animals were anesthetized with 2% isoflurane throughout the MRI imaging process, placed in an acrylic holder, and positioned in the center of the magnet. An i.v. bolus (0.1 mmol/kg) of gadopentetate dimeglumine MRI contrast agent (Magnevist; Berlex) was administered before scanning. To identify the region of the BBB disrupted by the FUS treatment, contrast-enhanced T1 turbo spin-echo sequences were acquired using the following parameters: repetition/echo time, 780 ms/15 ms; slice thickness, 1.4 mm; matrix size, 128×256; field of view, 39×60 mm (resolution, 0.3×0.3 mm). T2-weighted images were obtained to produce R2 maps both in gel phantom or in vivo experiments by using a double-TE spinecho sequence and acquired three times, using the following parameters: repetition time, 3,860 ms, echo time, 8/14, 28/57, and 85/228 ms; matrix, 128×256; field of view, 38×76 mm (resolution, 0.3×0.3 mm); and slice thickness, 1.4 mm.

[4] = tested on: Rat glioma C6 cells; assay: Cell toxicity in vitro, XTT assay; assay type: cell-based; conditions: 12 hrs, no magnetic field
Experimental: Rat glioma C6 cells were cultured in the culture medium RPMI 1640 supplemented with 2.2 mg/mL sodium carbonate, 10% FBS, 50 μg/mL gentamycin, 50 μg/mL penicillin and 50 μg/mL streptomycin at 37° C. and 5% CO2. Approximately 10,000 cells were placed in each well of a 96-well culture plate and incubated in a humidified chamber at 37° C. and 5% CO2 for 24 hrs.
Before counting viable cells by the XTT assay, the culture medium in each well was removed and cells were incubated in 120 μL of XTT for 3 hrs. After the reaction, a 100 μL aliquot of the solution in each well was sampled and transferred to a 96-well counting dish, followed by measuring absorbance at OD490 using an ELISA reader, so as to determine cell viability (%). The experimental results were expressed as mean±SD. The in vitro cytotoxicities of MNPs, epirubicin and epirubicin-MNPs on C6 cells were evaluated by the IC50 values thereof.

Row | SMILES | doxorubicin delivered into normal brains by FUS ([1]; FUS treatment used safely) | doxorubicin delivery by FUS ([1]; increased delivery, at the expense of increased damage to brain tissue) | therapeutic range reported in vivo ([2]; human, in vivo) [ng/g tumor] | clinical response rate ([2]; patients with breast carcinoma) [%] | concentration at 6 hr [3] [ng/g] | epirubicin accumulated in tissue [3] | epirubicin concentration measured in tissues per iron (range) [3] | epirubicin delivered, assessed by ICP-OES/HPLC [3] | epirubicin delivered, assessed by MRI [3] | mean immobilization ratio in tissues [3] [μg epirubicin/mg iron ion] | IC50 [4] [µg/mL]
1 | COc1cccc2c1C(=O)c1c(O)c3c(c(O)c1C2=O)C[C@@](O)(C(=O)CO)C[C@@H]3O[C@H]1C[C@H](N)[C@H](O)[C@H](C)O1 [doxorubicin] | 886±327 ng doxorubicin per gram of tissue | 5,336±659 ng/g | 819±482 | 39 |  |  |  |  |  |  | 
2 | COc1cccc2c1C(=O)c1c(O)c3c(c(O)c1C2=O)C[C@@](O)(C(=O)CO)C[C@@H]3O[C@H]1C[C@H](N)[C@@H](O)[C@H](C)O1 [epirubicin] |  |  |  |  | 21700 | 1,336±1,182 ng epirubicin per gram of tissue | 383-415 μg epirubicin/mg iron ion | 1,162±1,028 ng/g | 1,197±226 ng/g | 395.6±17.3 | 6.7 (≈ 12.3 µM)
